Measured values: ChEMBL document CHEMBL4411262, “Ulleungdin, a Lasso Peptide with Cancer Cell Migration Inhibitory Activity Discovered by the Genome Mining Approach” (J Nat Prod, 2018)
The source made the active and inactive calls. No cut-off for these calls is given here. Where a SMILES comes first, the peptide text is derived from it. Bridges are numbered along the chain shown (N, C = ends).

How the values were obtained:
A549 [1] = test: Antiinvasive activity against human A549 cells assessed as inhibition of cell invasion at 50 uM after 24 hrs by crystal violet staining based transwell assay relative to control; type: functional; conditions: A549, 24 h
A549 [2] = test: Antimigratory activity against human A549 cells assessed as reduction in cell migration measured at 15 mins interval for 12 hrs by Holomonitor M4 time-lapse cytometric method; type: functional, cell-based
A549 [3] = test: Effect on ERK phosphorylation in human A549 cells up to 50 uM after 24 hrs by Western blot analysis; type: cell-based
A549 [4] = test: Effect on paxillin expression in human A549 cells up to 50 uM after 24 hrs by Western blot analysis; type: functional, cell-based
A549 [5] = test: Cytotoxicity against human A549 cells assessed as effect on cell viability up to 100 uM after 24 hrs by EZ-Cytox cell viability assay; type: cell-based; conditions: a549, 24 h
A549 [6] = test: Effect on JNK expression in human A549 cells up to 50 uM after 24 hrs by Western blot analysis; type: functional, cell-based
[7] = target: Matrix metalloproteinase-9 (Homo sapiens) (UniProt P14780); test: Effect on MMP9 phosphorylation in human A549 cells up to 50 uM after 24 hrs by Western blot analysis; type: cell-based
[8] = target: c-Jun N-terminal kinase, JNK (Homo sapiens) (UniProt P45983+P53779+P45984); test: Effect on JNK phosphorylation in human A549 cells up to 50 uM after 24 hrs by Western blot analysis; type: cell-based
A549 [9] = test: Antimigratory activity against human A549 cells assessed as reduction in cell motility measured at 15 mins interval for 12 hrs by Holomonitor M4 time-lapse cytometric method; type: functional, cell-based
[10] = target: Focal adhesion kinase 1 (Homo sapiens) (UniProt Q05397); test: Effect on FAK phosphorylation in human A549 cells up to 50 uM after 24 hrs by Western blot analysis; type: cell-based
A549 [11] = test: Effect on MMP9 expression in human A549 cells up to 50 uM after 24 hrs by Western blot analysis; type: functional, cell-based
A549 [12] = test: Effect on ERK expression in human A549 cells up to 50 uM after 24 hrs by Western blot analysis; type: functional, cell-based
A549 [13] = test: Effect on p38 expression in human A549 cells up to 50 uM after 24 hrs by Western blot analysis; type: functional, cell-based
[14] = target: 72 kDa type IV collagenase (Homo sapiens) (UniProt P08253); test: Effect on MMP2 phosphorylation in human A549 cells up to 50 uM after 24 hrs by Western blot analysis; type: cell-based
A549 [15] = test: Effect on FAK expression in human A549 cells up to 50 uM after 24 hrs by Western blot analysis; type: functional, cell-based
[16] = target: MAP kinase p38 (Homo sapiens) (UniProt O15264+Q15759+Q16539+P53778); test: Effect on p38 phosphorylation in human A549 cells up to 50 uM after 24 hrs by Western blot analysis; type: cell-based
A549 [17] = test: Effect on MMP2 expression in human A549 cells up to 50 uM after 24 hrs by Western blot analysis; type: functional, cell-based
Paxillin (Homo sapiens) = Paxillin (Homo sapiens) (UniProt P49023); test: Effect on paxillin phosphorylation in human A549 cells up to 50 uM after 24 hrs by Western blot analysis; type: cell-based
Paxillin (Homo sapiens), sequence (P49023 whole entry): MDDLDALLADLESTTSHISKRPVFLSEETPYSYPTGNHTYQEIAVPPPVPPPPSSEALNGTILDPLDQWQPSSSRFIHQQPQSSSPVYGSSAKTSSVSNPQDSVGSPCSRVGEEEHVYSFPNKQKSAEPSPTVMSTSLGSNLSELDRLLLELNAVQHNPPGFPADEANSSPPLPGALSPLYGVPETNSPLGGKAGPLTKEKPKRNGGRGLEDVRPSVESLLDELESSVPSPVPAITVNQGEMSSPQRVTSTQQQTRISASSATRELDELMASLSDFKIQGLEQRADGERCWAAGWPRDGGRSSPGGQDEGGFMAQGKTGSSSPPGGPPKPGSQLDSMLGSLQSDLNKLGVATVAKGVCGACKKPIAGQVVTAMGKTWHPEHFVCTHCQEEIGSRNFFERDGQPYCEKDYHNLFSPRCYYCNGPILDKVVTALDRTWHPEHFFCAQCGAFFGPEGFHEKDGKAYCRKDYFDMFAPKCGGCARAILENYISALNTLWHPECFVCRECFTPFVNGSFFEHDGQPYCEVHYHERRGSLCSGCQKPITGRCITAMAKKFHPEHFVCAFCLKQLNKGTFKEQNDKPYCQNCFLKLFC

72 kDa type IV collagenase (Homo sapiens), sequence (P08253 110-660 limits assumed): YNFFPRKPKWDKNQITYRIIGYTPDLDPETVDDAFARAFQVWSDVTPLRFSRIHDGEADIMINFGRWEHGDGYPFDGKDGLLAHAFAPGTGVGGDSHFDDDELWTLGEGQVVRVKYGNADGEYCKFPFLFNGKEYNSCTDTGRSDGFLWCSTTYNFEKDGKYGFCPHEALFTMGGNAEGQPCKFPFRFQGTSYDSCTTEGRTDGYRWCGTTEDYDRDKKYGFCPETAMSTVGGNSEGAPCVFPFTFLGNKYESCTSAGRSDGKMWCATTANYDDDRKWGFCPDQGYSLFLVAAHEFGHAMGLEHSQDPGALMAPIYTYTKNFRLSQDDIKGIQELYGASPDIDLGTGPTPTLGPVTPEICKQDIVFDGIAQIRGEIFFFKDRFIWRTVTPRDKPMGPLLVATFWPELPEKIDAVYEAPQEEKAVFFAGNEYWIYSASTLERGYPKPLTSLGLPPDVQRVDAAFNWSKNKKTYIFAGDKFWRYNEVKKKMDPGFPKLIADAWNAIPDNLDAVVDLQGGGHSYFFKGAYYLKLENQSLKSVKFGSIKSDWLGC
Matrix metalloproteinase-9 (Homo sapiens), sequence (P14780 whole entry): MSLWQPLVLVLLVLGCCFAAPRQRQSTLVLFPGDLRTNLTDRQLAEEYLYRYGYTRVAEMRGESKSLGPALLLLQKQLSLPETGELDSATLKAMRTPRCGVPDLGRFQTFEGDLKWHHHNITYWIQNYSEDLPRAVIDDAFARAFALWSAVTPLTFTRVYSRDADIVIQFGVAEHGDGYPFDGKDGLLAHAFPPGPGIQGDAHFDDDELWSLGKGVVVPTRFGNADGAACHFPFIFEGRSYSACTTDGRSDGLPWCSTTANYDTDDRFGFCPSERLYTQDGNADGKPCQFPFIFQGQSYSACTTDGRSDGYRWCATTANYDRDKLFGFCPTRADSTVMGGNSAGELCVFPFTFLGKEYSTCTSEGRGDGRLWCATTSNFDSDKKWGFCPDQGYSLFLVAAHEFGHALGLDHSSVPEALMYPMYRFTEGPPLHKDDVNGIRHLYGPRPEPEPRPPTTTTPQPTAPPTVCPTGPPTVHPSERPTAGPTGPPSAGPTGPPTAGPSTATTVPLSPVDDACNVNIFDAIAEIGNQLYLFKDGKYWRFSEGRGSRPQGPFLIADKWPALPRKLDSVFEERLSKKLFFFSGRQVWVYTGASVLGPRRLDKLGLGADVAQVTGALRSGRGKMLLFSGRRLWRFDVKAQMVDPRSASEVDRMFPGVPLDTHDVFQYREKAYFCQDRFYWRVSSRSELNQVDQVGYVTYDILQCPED
Focal adhesion kinase 1 (Homo sapiens), sequence (Q05397 2-1052 limits assumed): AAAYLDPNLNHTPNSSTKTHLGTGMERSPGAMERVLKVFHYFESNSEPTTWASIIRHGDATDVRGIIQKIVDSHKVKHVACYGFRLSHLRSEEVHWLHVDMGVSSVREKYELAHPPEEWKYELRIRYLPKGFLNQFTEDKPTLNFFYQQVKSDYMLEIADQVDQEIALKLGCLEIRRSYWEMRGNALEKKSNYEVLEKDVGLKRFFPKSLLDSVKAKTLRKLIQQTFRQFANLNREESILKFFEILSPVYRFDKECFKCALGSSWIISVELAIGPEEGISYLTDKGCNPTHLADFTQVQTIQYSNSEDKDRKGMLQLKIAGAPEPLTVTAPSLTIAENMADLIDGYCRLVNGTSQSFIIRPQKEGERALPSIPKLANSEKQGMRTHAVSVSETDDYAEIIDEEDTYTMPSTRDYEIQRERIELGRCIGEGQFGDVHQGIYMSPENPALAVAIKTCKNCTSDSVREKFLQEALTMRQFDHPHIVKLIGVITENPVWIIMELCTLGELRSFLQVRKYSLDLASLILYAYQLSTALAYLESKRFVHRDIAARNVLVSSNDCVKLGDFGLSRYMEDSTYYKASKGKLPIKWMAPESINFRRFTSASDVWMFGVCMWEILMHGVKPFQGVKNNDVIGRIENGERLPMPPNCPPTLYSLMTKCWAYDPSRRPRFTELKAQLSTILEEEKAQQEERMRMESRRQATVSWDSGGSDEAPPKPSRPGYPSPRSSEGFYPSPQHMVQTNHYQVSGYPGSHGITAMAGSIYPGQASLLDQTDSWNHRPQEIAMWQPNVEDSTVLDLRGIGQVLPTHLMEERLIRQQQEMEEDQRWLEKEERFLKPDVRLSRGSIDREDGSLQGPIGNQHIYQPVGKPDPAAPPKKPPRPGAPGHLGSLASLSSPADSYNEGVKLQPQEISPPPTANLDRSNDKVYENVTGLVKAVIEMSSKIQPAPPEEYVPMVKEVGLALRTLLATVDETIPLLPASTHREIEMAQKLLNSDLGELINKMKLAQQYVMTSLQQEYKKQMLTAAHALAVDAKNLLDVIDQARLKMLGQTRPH

Activity [7] | Activity [8] | Activity [10] | Activity [14] | Activity [16] | Activity (Paxillin (Homo sapiens)) | Structure (SMILES) | inhibition at 50 µM (A549 [1]) [%] | Activity (A549 [2]) | Activity (A549 [3]) | Activity (A549 [4]) | Activity (A549 [5]) | Activity (A549 [6]) | Activity (A549 [9]) | Activity (A549 [11]) | Activity (A549 [12]) | Activity (A549 [13]) | Activity (A549 [15]) | Activity (A549 [17])
 |  |  |  |  |  | CC(C)C[C@H](NC(=O)CNC(=O)[C@H](Cc1ccccc1)NC(=O)[C@H](CO)NC(=O)[C@@H]1CC(=O)NCC(=O)N[C@@H](Cc2ccccc2)C(=O)NCC(=O)N[C@@H](CO)C(=O)N[C@@H](CCCCN)C(=O)N2CCC[C@H]2C(=O)N[C@@H](CC(C)C)C(=O)N1)C(=O)N[C@@H](CC(N)=O)C(=O)N[C@@H](Cc1ccccc1)C(=O)N[C@@H](Cc1ccccc1)C(=O)O (GFGSKPLDSFGLNFF-OH; lactam N-8) | 56 |  |  |  |  |  |  |  |  |  |  | 
inactive | inactive | inactive | inactive | inactive | inactive | CC[C@H](C)[C@@H]1NC(=O)[C@H](Cc2ccccc2)NC(=O)CNC(=O)C[C@@H](C(=O)N[C@H](C(=O)N[C@@H](Cc2ccccc2)C(=O)NCC(=O)N[C@@H](Cc2cnc[nH]2)C(=O)N[C@@H](Cc2ccc(O)cc2)C(=O)NCC(=O)NCC(=O)O)[C@@H](C)CC)NC(=O)[C@H](CCCCN)NC(=O)CNC(=O)[C@H](Cc2c[nH]c3ccccc23)NC(=O)CNC1=O (GFIGWGKDIFGHYGG-OH; lactam N-8) | 48.4 | Dose-dependent effect | inactive | inactive | Non-Toxic | inactive | Dose-dependent effect | inactive | inactive | inactive | inactive | inactive
 |  |  |  |  |  | CC[C@H](C)[C@@H]1NC(=O)[C@@H]2CCCN2C(=O)[C@H](CCCCN)NC(=O)[C@H](CO)NC(=O)CNC(=O)[C@H](Cc2ccccc2)NC(=O)CNC(=O)C[C@@H](C(=O)N[C@@H](CO)C(=O)N[C@@H](Cc2ccccc2)C(=O)NCC(=O)N[C@@H](CC(C)C)C(=O)N[C@@H](CO)C(=O)N[C@@H](Cc2c[nH]c3ccccc23)C(=O)N[C@@H](CC(C)C)C(=O)O)NC1=O [SUNGSANPIN] (GFGSKPIDSFGLSWL-OH; lactam N-8) | 53 |  |  |  |  |  |  |  |  |  |  | 
